Test results: patent US11752195B2, “Compositions and methods of use of synthetic peptides with Mycobacterium abscessus inhibitory activity” (priority 2021, dated 2023)
pIC50: −log10 of the molar value. ≈ marks a conversion by molar mass, not a printed value. Where two headings read alike, the source gives them in different places. Peptide text beside a SMILES is read from it.

How the values were obtained:
[1] = tested on: Mabs 19977R (rough morphotype); experiment: Growth inhibition screen with unpurified peptides in M7H9, MHB, CAMHB; type: cell-based, Mycobacterium abscessus; conditions: unpurified peptide 100 μM
Protocol: (§1) Mabs ATCC 19977 smooth morphotype (Mabs 19977S) cells were cultured at 37° C. in Middlebrook 7H9 supplemented with albumin, dextrose, and catalase (ADC) (10%), Tween 80 (0.05%), and glycerol (0.2%) (herein referred to as M7H9). Mabs 19977S was exposed to clarithromycin (8 μg/ml) in M7H9 for 24 h at 37° C., subjected to serial dilutions and plated on Middlebrook 7H10 agar supplemented with oleic acid, albumin, dextrose, and catalase (OADC) (herein referred to as M7H10). After 5 d incubation at 37° C., a single, isolated colony displaying a rough morphotype (Mabs 19977R) was detected, grown, and stored at −70° C. Mabs 19977S and Mabs 19977R were grown for approximately 32 h at 37° C., diluted 1:100 in fresh, pre-warmed M7H9, and grown for an additional 14 h until the cultures reached early-to-mid-logarithmic phase (OD600=0.2-0.3).
(§2) Bacteria grown in M7H9, MHB, and cation-adjusted MHB (CAMHB) were used to identify unpurified peptides with inhibitory activity against Mabs 19977S and Mabs 19977R. Peptides (50-65% purity) were synthesized by Sigma Aldrich (St. Louis, Mo.) PEPscreen Custom Peptide Libraries. Mabs ATCC 19977S and ATCC 19977R mid-logarithmic phase cultures were centrifuged (3,715×g) for 2 min, washed in pre-warmed M7H9, re-suspended in M7H9, MHB, or CAMHB, and diluted to 10^6 CFU/ml. In a 96-well polystyrene microtiter plate, media (M7H9, MHB, or CAMHB), unpurified peptides (100 μM or 10 μM), ethylenediaminetetraacetic acid (EDTA) (100 μM), and cells (Mabs 19977S or Mabs 19977R) (10^5 CFU/ml) were added. EDTA was added to determine if metal ion chelation would alter peptide activity. Clarithromycin (4 μg/ml) was used as an antibiotic positive control. The 96-well microtiter plates were statically incubated at 37° C. for 72 h. The OD600 was measured every 24 h using a SpectraMax M2 microplate reader (Molecular Devices, San Jose, Calif., USA). Peptides that reduced Mabs growth by ≥50%, when compared to the growth control OD600, were considered active.
(§3) In culture medium with cation supplementation (CAMHB), ASU2060 (100 μM) had activity against both morphotypes when EDTA was added (FIG. 2F). […] There were no peptides with inhibitory activity in CAMHB without EDTA (FIG. 2E).

[2] = tested on: Mabs 19977S (Mabs ATCC 19977 smooth morphotype); experiment: as above; type: cell-based, Mycobacterium abscessus; conditions: unpurified peptide 100 μM
Protocol: as §1, §2, §3

[3] = tested on: human red blood cell (hRBC); experiment: Human red blood cell (hRBC) hemolytic assay; type: cell-based
Protocol: To determine if the purified, Mabs inhibitory peptides were toxic, human red blood cell (hRBC) hemolytic assays were performed. Peptides (at 1×, 2×, and 4× their respective Mabs 19977S MICs) were added to 4% hRBC in saline and statically incubated for 1 h or 18 h at 37° C. […] Following incubation, the peptide-hRBC mixtures and the 1% Triton X-100 positive controls were centrifuged for 1 min at 1,000×g to pellet the intact hRBC. The supernatant for each experimental mixture and control was removed, and OD475 measurements were recorded to determine the percentage of lysed hRBC. The percentage of hemolytic activity was normalized by comparing the supernatant absorbance of all conditions tested to an equivalent number of hRBC lysed with 1% Triton X-100 (Eq. 1) (50).

Mabs 19977S = conditions: purified peptide, MHB with EDTA (100 μM), 96 h, 37° C.
Protocol: (§4) In order to determine effects on Mabs viability, microdilution antimicrobial assays were performed in MHB.

Mabs 19977R = conditions: 96 h
Protocol: as §4

[4] = tested on: E. coli clinical isolates
From the text: (approved by Mayo Clinic Biospecimen Subcommittee BIO00015462).

E. coli ATCC 25922 = type: cell-based, Escherichia coli; conditions: ATCC 25922, 22 h
Protocol: Samples were serially diluted in MHB to ˜10^5 CFU/ml and added to a 96-well polystyrene plate prepared with ASU2060 (128-4 μM). After incubation for 22 h at 37° C., the OD600 was measured using a SpectraMax M2 microplate reader (Molecular Devices, San Jose, Calif., USA). Values were normalized to the medium blank (MHB) and E. coli (ATCC 25922) treated with nitrofurantoin at 64 μM.

[5] = purified peptide, MHB with EDTA (100 μM), 37° C.

CC(C)[C@H](NC(=O)[C@@H](CCCCN)NC(=O)[C@H](C)NC(=O)[C@@H](C)NC(=O)[C@@H](CCCCN)NC(=O)[C@H](CO)NC(=O)[C@@H](CCCNC(=N)N)NC(=O)CNC(=O)[C@H](CC(N)=O)NC(=O)[C@H](Cc1ccccc1)NC(=O)[C@@H](N)CCC(N)=O)C(=O)N[C@@H](CC(N)=O)C(=O)N[C@@H](Cc1ccccc1)C(=O)N[C@H](Cc1c[nH]c2ccccc12)C(=O)N[C@H](CCCNC(=N)N)C(=O)N[C@H](CCCCN)C(=O)N[C@H](C)C(=O)O [ASU2001, QFNGrSkaAkVNFwrka] (HELM PEPTIDE1{Q.F.N.G.[dR].S.[dK].[dA].A.[dK].V.N.F.[dW].[dR].[dK].[dA]}$$$$V2.0)
activity (growth reduced by ≥50% vs growth control OD600) ([1]; M7H9, with EDTA (100 μM)): exhibited activity
activity (growth reduced by ≥50% vs growth control OD600) ([1]; M7H9, without EDTA): exhibited activity
activity (growth reduced by ≥50% vs growth control OD600) ([1]; MHB, with EDTA): maintained activity
activity (growth reduced by ≥50% vs growth control OD600) ([2]; M7H9, with EDTA (100 μM)): exhibited activity
activity (growth reduced by ≥50% vs growth control OD600) ([2]; MHB, with EDTA): maintained activity

CC(C)C[C@@H](NC(=O)[C@@H](C)NC(=O)[C@@H](CCCCN)NC(=O)[C@@H](CCCNC(=N)N)NC(=O)[C@H](Cc1ccccc1)NC(=O)[C@H](CCC(N)=O)NC(=O)[C@H](CC(N)=O)NC(=O)[C@@H](NC(=O)[C@@H](CCCCN)NC(=O)[C@@H](CCCNC(=N)N)NC(=O)[C@H](C)NC(=O)[C@@H](CCCCN)NC(=O)[C@H](CO)NC(=O)[C@@H](CC(C)C)NC(=O)CNC(=O)[C@H](Cc1ccc(O)cc1)NC(=O)[C@H](N)CCCNC(=N)N)C(C)C)C(N)=O [ASU2009, rYGlSkArkVNQFrkal] (HELM PEPTIDE1{[dR].Y.G.[dL].S.[dK].A.[dR].[dK].V.N.Q.F.[dR].[dK].[dA].[dL].[am]}$$$$V2.0)
activity (growth reduced by ≥50% vs growth control OD600) ([1]; M7H9, with EDTA (100 μM)): exhibited activity
activity (growth reduced by ≥50% vs growth control OD600) ([1]; MHB, with EDTA): maintained activity
activity (growth reduced by ≥50% vs growth control OD600) ([2]; M7H9, with EDTA (100 μM)): exhibited activity
activity (growth reduced by ≥50% vs growth control OD600) ([2]; MHB, with EDTA): maintained activity

CC(C)C[C@@H](NC(=O)[C@@H](C)NC(=O)[C@H](CO)NC(=O)[C@@H](CCCCN)NC(=O)[C@@H](CCCNC(=N)N)NC(=O)[C@@H](CCCNC(=N)N)NC(=O)[C@H](Cc1ccccc1)NC(=O)[C@@H](CC(C)C)NC(=O)[C@H](CC(N)=O)NC(=O)[C@H](Cc1c[nH]cn1)NC(=O)[C@@H]1CCCN1C(=O)[C@H](C)NC(=O)[C@H](CO)NC(=O)[C@@H]1CCCN1C(=O)CNC(=O)[C@@H](NC(=O)[C@H](N)CCCNC(=N)N)C(C)C)C(N)=O [ASU2019] (HELM PEPTIDE1{[dR].V.G.P.S.A.P.H.N.[dL].F.[dR].[dR].[dK].S.[dA].[dL].[am]}$$$$V2.0; N-terminus and C-terminus assumed)
relative hRBC toxicity among the six peptides [3]: the most toxicity
MIC (Mabs 19977S): 256 µM (≈ 488 µg/mL)
pIC50 (Mabs 19977R): 4.09 to 4.12

CC(C)C[C@@H](NC(=O)CNC(=O)[C@@H](Cc1c[nH]c2ccccc12)NC(=O)[C@@H](CCCNC(=N)N)NC(=O)[C@@H](N)CCC(N)=O)C(=O)N[C@@H](CO)C(=O)N[C@H](CC(C)C)C(=O)N[C@@H](C)C(=O)N1CCC[C@H]1C(=O)N[C@@H](Cc1ccc(O)cc1)C(=O)N[C@H](CCCCN)C(=O)N[C@@H](CC(N)=O)C(=O)N[C@@H](Cc1ccccc1)C(=O)N[C@H](CCCNC(=N)N)C(=O)N[C@H](CCCNC(=N)N)C(=O)N[C@H](CC(C)C)C(=O)N[C@@H](CO)C(N)=O [ASU2056, QrwGlSlAPYkNFrrlS] (HELM PEPTIDE1{Q.[dR].[dW].G.[dL].S.[dL].A.P.Y.[dK].N.F.[dR].[dR].[dL].S.[am]}$$$$V2.0; N-terminus and C-terminus assumed)
relative hRBC toxicity among the six peptides [3]: the least toxicity
MIC (Mabs 19977S): 32 µM (≈ 66.9 µg/mL)
pIC50 (Mabs 19977R; [5]): 4.35

CC(C)C[C@@H](NC(=O)[C@@H](C)NC(=O)CNC(=O)[C@@H](CC(C)C)NC(=O)[C@@H](CCCCN)NC(=O)[C@@H](CCCNC(=N)N)NC(=O)[C@@H](CCCNC(=N)N)NC(=O)[C@H](CC(N)=O)NC(=O)[C@H](Cc1ccc(O)cc1)NC(=O)[C@@H](CCCNC(=N)N)NC(=O)[C@H](C)NC(=O)[C@H](CO)NC(=O)[C@@H](CCCNC(=N)N)NC(=O)CNC(=O)[C@@H](N)Cc1ccc(O)cc1)C(=O)N[C@@H](CO)C(=O)NCC(=O)O [ASU2059, YGrSArYNrrklGalSG] (HELM PEPTIDE1{Y.G.[dR].S.A.[dR].Y.N.[dR].[dR].[dK].[dL].G.[dA].[dL].S.G}$$$$V2.0)
activity (growth reduced by ≥50% vs growth control OD600) ([1]; M7H9, with EDTA (100 μM)): exhibited activity
activity (growth reduced by ≥50% vs growth control OD600) ([1]; MHB, with EDTA): maintained activity
activity (growth reduced by ≥50% vs growth control OD600) ([2]; M7H9, with EDTA (100 μM)): exhibited activity
activity (growth reduced by ≥50% vs growth control OD600) ([2]; MHB, with EDTA): maintained activity

CC(C)C[C@@H](NC(=O)CNC(=O)[C@H](CO)NC(=O)[C@@H](CCCCN)NC(=O)[C@@H](CCCNC(=N)N)NC(=O)[C@@H](Cc1c[nH]c2ccccc12)NC(=O)[C@@H](CCCNC(=N)N)NC(=O)[C@H](Cc1ccccc1)NC(=O)[C@H](CC(N)=O)NC(=O)[C@H](Cc1ccc(O)cc1)NC(=O)[C@@H](CCCNC(=N)N)NC(=O)[C@H](C)NC(=O)[C@H](CO)NC(=O)[C@@H](Cc1c[nH]c2ccccc12)NC(=O)[C@@H](CCCNC(=N)N)NC(=O)CNC(=O)[C@@H](N)C(C)C)C(N)=O [ASU2060, VGrwSArYNFrwrkSGl] (HELM PEPTIDE1{V.G.[dR].[dW].S.A.[dR].Y.N.F.[dR].[dW].[dR].[dK].S.G.[dL].[am]}$$$$V2.0; N-terminus and C-terminus assumed)
ASU2060 MIC ([4]; E. coli clinical isolate 23): 8 µM
ASU2060 MIC ([4]; E. coli clinical isolate 36): 8 µM
ASU2060 MIC ([4]; E. coli clinical isolate 45): 8 µM
ASU2060 MIC ([4]; E. coli clinical isolate 47): 8 µM
ASU2060 MIC ([4]; E. coli clinical isolate 97): 8 µM
ASU2060 MIC ([4]; E. coli clinical isolate 98): 8 µM
MIC (E. coli ATCC 25922): 4 µM (≈ 8.55 µg/mL)
MIC (Mabs 19977S): 8 µM (≈ 17.1 µg/mL)
pIC50 (Mabs 19977R; [5]): 4.89

Triton X-100 [reference compound]
hRBC lysis by positive control ([3]; Triton X-100 1%, 4% hRBC): complete hRBC lysis
